PMC6478823, “A suite of phenotypic assays to ensure pipeline diversity when prioritizing drug-like Cryptosporidium growth inhibitors” (Nature Communications, 2019)
pEC50: −log10 of the molar value. Where “and” joins values, the source holds several entries; their conditions need not be identical. Identical values can stand only once. Like-named read-outs stand apart in the source and are kept apart here.

System: C. parvum
Test: 48 h Cryptosporidium growth inhibition assay
Assay type: cell-based, Cryptosporidium parvum
Settings: for EC90: compound added 3 h post-infection, read at 48 h; for 0 - 48 h V. villosa lectin (asexual): Mean % Inhibition (parasites): replicates 1-2
Source text: As a first step in developing specific Cryptosporidium mode of action assays, we conducted a series of light microscopy time-lapse and transmission electron microscopy (TEM) time course experiments in order to precisely define C. parvum development within the HCT-8 cell culture system. […] This synchronicity was exploited by modifying a previously developed high-content microscopy assay. These assay modifications enabled the evaluation of several key events within the life cycle: host cell invasion, intracellular replication, host cell egress and establishment of new parasitophorous vacuoles, and sexual differentiation. […] Since the methods all used automated liquid handling, imaging, and image analysis, the assay methods all incorporated nuclear staining to monitor host cell numbers and enable recognition of HCT-8 cell monolayer damage, for example as an artifact from a malfunctioning plate washer or from unanticipated cytotoxicity of the compounds.
Human ileocecal adenocarcinoma (HCT-8) cells were purchased from ATCC (catalog# CCL-244) and cultured in ATCC modified RPMI-1640 medium (Gibco, catalog# A10491–01), supplemented with 10% heat-inactivated fetal bovine serum (Sigma-Aldrich, catalog# 12306C) and 120 U/mL penicillin and 120 μg/mL streptomycin (Gibco, catalog# 15140-122) (culture media). […] For all experiments, HCT-8 cells between passages 9 and 39 were used. C. parvum (Iowa isolate) oocysts were purchased from Bunchgrass Farm (Deary, ID), stored at 4 °C and used within 5 months of collection from an infected calf. To induce excystation, oocysts were first treated with 10 mM hydrochloric acid for 10 min at 37 °C, spun at 14,000×g for 4.5 min at room temperature, treated with 2 mM sodium taurocholate for 10 min at 16 °C, spun as before, and resuspended in culture media for infection.
A modification of a previously reported immunofluorescence assay was used to determine the EC50 and EC90 of compounds[13]. HCT-8 cells were grown to ≥ 90% confluence in 384-well plates (Corning, catalog# 353962) and infected with 5500 oocysts per well after they were induced for excystation as described above. Different concentrations of compounds were added 3 h post-infection and plates were incubated for another 45 h in a 5% CO2 incubator at 37 °C. Wells were then washed 3 times with PBS containing 111 mM D-galactose (PBS-D-gal), fixed with 4% paraformaldehyde (PFA) in PBS for 15 min at room temperature, permeabilized with 0.25% Triton X-100 for 10 min at 37 °C, washed 3 times with PBS with 0.1% Tween 20, and blocked with 4% bovine serum albumin (BSA) in PBS for 2 h at 37 °C or 4 °C overnight. Parasitophorous vacuoles were stained with 1.33 µg/mL of fluorescein-labeled Vicia villosa lectin (Vector Laboratories, catalog# FL-1231) diluted in 1% BSA in PBS with 0.1% Tween 20 for 1 h at 37 °C, followed by addition of Hoechst 33258 (AnaSpec, catalog# AS-83219) at 0.09 mM diluted in water for another 15 min at 37 °C. Wells were then washed 5 times with PBS containing 0.1% Tween 20. A Nikon Eclipse Ti2000 epifluorescence microscope with an automated stage was programmed using NIS-Elements Advanced Research software (Nikon, USA) to focus on the center of each well and take a 3 × 3 or 6 × 6 composite image using an EXi blue fluorescence microscopy camera (QImaging, Canada) with a 20 × objective (NA = 0.45). Nuclei and parasite images were separately exported as.tif files and analyzed using macros developed on the ImageJ platform (National Institutes of Health)[13].

[1] = Cryptosporidium parvum, HCT-8, read-out: Regular 3 to 48 h assay in vitro EC90, C. parvum in HCT-8 cells
[2] = read-out: Regular 3 to 48 h assay in vitro EC90, C. parvum in HCT-8 cells
[3] = Cryptosporidium parvum, read-out: Regular 3 to 48 h assay in vitro EC90, C. parvum in HCT-8 cells

## CN(C)C[C@H](O)Cn1c2ccc(Br)cc2c2cc(Br)ccc21 (racemic) [Wiskostatin]
[1]
  EC90: 11.3 µM
[2]
  EC90: 11.3 µM

## Oc1c(C(Nc2ccccn2)c2cccc(Oc3ccccc3)c2)ccc2cccnc12 (centres unmarked) [A-2]
[2]
  EC90: 1.34 µM

## O=C(NC(c1ccccc1)c1ccc2cccnc2c1O)c1ccccc1 (centres unmarked) [A-5]
[2]
  EC90: 4.35 µM

## Oc1c(CN2CCN(c3ccccc3F)CC2)cc(Br)c2cccnc12 [A-6]
[2]
  EC90: 1.33 µM

## CCOc1ccc(Cl)c2c1B(O)OC2CN (centres unmarked) [AN6426]
[2]
  EC90: 19.5 µM

## CC(C)c1c(C(=O)Nc2ccccc2)c(-c2ccccc2)c(-c2ccc(F)cc2)n1CC[C@@H](O)C[C@@H](O)CC(=O)O [Atorvastatin]
[1]
  EC90: 2.18 µM

## c1ccc(CNc2nc(Nc3ccccc3)nc3ccccc23)cc1 [B-1]
B-1 at log[MMV006169] (µM) 0.22
  0 - 48 h V. villosa lectin (asexual): Mean % Inhibition (parasites): 61.21% and 81.70%
B-1 at log[MMV006169] (µM) 0.52
  0 - 48 h V. villosa lectin (asexual): Mean % Inhibition (parasites): 87.47% and 92.32%
B-1 at log[MMV006169] (µM) 0.82
  0 - 48 h V. villosa lectin (asexual): Mean % Inhibition (parasites): 91.12% and 90.37%
B-1 at log[MMV006169] (µM) 1.00
  0 - 48 h V. villosa lectin (asexual): Mean % Inhibition (parasites): 88.49% and 90.28%
B-1 at log[MMV006169] (µM) -0.18
  0 - 48 h V. villosa lectin (asexual): Mean % Inhibition (parasites): 5.34% and 39.84%
B-1 at log[MMV006169] (µM) -0.65
  0 - 48 h V. villosa lectin (asexual): Mean % Inhibition (parasites): -11.45% and 6.00%
B-1 at log[MMV006169] (µM) -1.13
  0 - 48 h V. villosa lectin (asexual): Mean % Inhibition (parasites): -7.55% and -4.41%
B-1 at log[MMV006169] (µM) -1.61
  0 - 48 h V. villosa lectin (asexual): Mean % Inhibition (parasites): -3.87% and -15.36%
B-1 at log[MMV006169] (µM) -2.08
  0 - 48 h V. villosa lectin (asexual): Mean % Inhibition (parasites): -14.75% and -13.18%
read-out: 0 − 48 h V. villosa lectin (asexual): EC50, asexual growth assay, first 48 h, range in brackets
  pEC50: 6.00
[2]
  EC90: 2.27 µM

## c1ccc(CNc2nc(NC3CCCC3)nc3ccccc23)cc1 [B-5]
[2]
  EC90: 7.22 µM

## COc1ccc(Nc2nc(NCc3ccccc3Cl)c3ccccc3n2)cc1Cl [B-13]
[2]
  EC90: 1.39 µM

## c1ccc(CNc2nc(NCc3ccccc3)c3ccccc3n2)cc1 [B-23]
[2]
  EC90: 10.8 µM

## COc1ccc(NC(=O)N2CCCCN3C(CN(C)C)C(c4ccc(C#Cc5ccccc5)cc4)C3C2)cc1 (centres unmarked) [BRD7929]
[2]
  EC90: 0.15 µM

## Cc1cccc(-n2ncc3c(O)nc(-n4nc(C)cc4NC(=O)c4cc5ccccc5o4)nc32)c1 [C-1]
[2]
  EC90: 0.65 µM

## Cc1cccc(-n2ncc3c(=O)[nH]c(-n4nc(C)cc4NC(=O)C4CC4)nc32)c1 [C-4]
[2]
  EC90: 5.17 µM

## Cc1cccc(-n2ncc3c(=O)[nH]c(-n4nc(C)cc4NC(=O)C4CCCC4)nc32)c1 [C-5]
[2]
  EC90: 4.99 µM

## C[C@H]1CCC[C@H](C[C@H]2Cc3cc(O)cc(O)c3C(=O)O2)O1 [Cladosporin]
[1]
  EC90: 0.49 µM

## O=C(Nc1ccc(Cl)c(Cl)c1)N1CCN(c2ccc3nncn3n2)CC1 [D-28]
[2]
  EC90: 1.5 µM

## CN(C)S(=O)(=O)c1ccc(C(=O)N2CCN(c3ccc4nncn4n3)CC2)cc1 [D-44]
[2]
  EC90: 11.6 µM

## CC(=O)O[C@@]12CO[C@@H]1C[C@H](O)[C@@]1(C)C(=O)[C@H](O)C3=C(C)[C@@H](OC(=O)[C@H](O)[C@@H](NC(=O)OC(C)(C)C)c4ccccc4)C[C@@](O)([C@@H](OC(=O)c4ccccc4)[C@H]21)C3(C)C [Docetaxel]
[1]
  EC90: 1 µM

## O=c1[nH]c(=O)n([C@H]2C[C@H](O)[C@@H](CO)O2)cc1F [Floxuridine]
[3]
  EC90: 0.14 µM

## CN(C)c1ccc(C(=C2C=CC(=[N+](C)C)C=C2)c2ccc(N(C)C)cc2)cc1 [Gentian Violet]
[2]
  EC90: 1.05 µM

## O=C(CC1NCCCC1O)Cn1cnc2cc(Br)c(Cl)cc2c1=O (centres unmarked) [Halofuginone]
[1]
  EC90: 0.34 µM

## CCC(C)n1ncn(-c2ccc(N3CCN(c4ccc(OCC5COC(Cn6cncn6)(c6ccc(Cl)cc6Cl)O5)cc4)CC3)cc2)c1=O (centres unmarked) [Itraconazole]
[1]
  EC90: 7.24 µM

## CSc1ccccc1C(=O)Nc1nc(-c2ccccn2)cs1 [MMV001246]
[2]
  EC90: 5.39 µM

## O=C(Nc1nc(-c2ccccn2)cs1)c1ccccc1Br [MMV665909]
[2]
  EC90: 6.84 µM

## Cc1cn(-c2cc(NC(=O)c3ccc(C)c(Nc4nccc(-c5cccnc5)n4)c3)cc(C(F)(F)F)c2)cn1 [Nilotinib]
[3]
  EC90: 16.5 µM

## Cc1cc(/C=C/c2ccc3cc(N(C)C)ccc3[n+]2C)c(C)n1-c1ccccc1 [Pyrvinium pamoate]
[1]
  EC90: 3.21 µM

## [H]/N=C(/NCCCCC)N/N=C/c1c[nH]c2ccc(OC)cc12 [Tegaserod]
[1]
  EC90: 10.3 µM
